In patent US12109184B2, “Personalized methods of treating cancer” (CANCER RESEARCH TECHNOLOGY LIMITED, priority 2020, dated 2024):

Experiments:
Assay type in all cases: cell-based
[1] = system: SW480 and MDA-MB-231 cells; experiment: Cell counting, rescue by cysteine precursors during cysteine starvation; conditions: supplement at 0.8 mM
Experimental: HCT116, SW480, MDA-MB-468, MDA-MB-231, AsPC-1, BxPC-3, CFPAC-1, MIAPaCa-2, PANC-1, Panc10.05, SW1990, U-251, LN-18, LN-229, T98G, U-343, A-172 cells were used. Cell lines were authenticated using Short Tandem Repeat (STR) profiling and tested for mycoplasma. Colorectal and breast cancer cell lines were grown in Dulbecco's Modified Eagle Medium (DMEM), pancreatic ductal adenocarcinoma (PDAC) cell lines were grown in Roswell Park Memorial institute (RPMI) 1640. All cell lines were supplemented with penicillin-streptomycin, amphotericin, 2 mM L-glutamine, and 10% fetal bovine serum (FBS). Cells were kept at 37° C. in 5% CO2 in a humidified cell culture incubator. A formulated medium lacking cysteine, cystine, methionine, and serine was used as a base for creating experimental media. The base medium formulation contained 0.2 mM L-histidine, 0.4 mM L-isoleucine, 0.4 mM L-leucine, 0.4 mM L-lysine, 0.2 mM L-phenylalanine, 0.4 mM L-threonine, 0.08 mM L-tryptophan, 0.4 mM L-valine, 0.2 mM L-arginine, 2 mM L-glutamine, 0.2 mM L-tyrosine, 0.4 mM L-alanine, 0.3 mM L-proline, 0.15 mM L-glutamic acid, 0.1 mM L-aspartic acid, 0.2 mM L-asparagine, and 0.4 mM glycine. The base medium was supplemented with 10% dialyzed FBS, penicillin-streptomycin, and amphotericin. To ensure an adequate supply of vitamin B6 (a crucial co-factor for de novo cysteine synthesis), base medium was supplemented with additional 20 μM vitamin B6. The control experimental medium was the base medium supplemented with 0.4 mM L-cysteine, 0.2 mM L-methionine, and 0.4 mM L-serine. The cysteine starvation (−Cys) experimental medium was base medium supplemented with 0.2 mM L-methionine and 0.4 mM L-serine.
Cells were seeded at 6×10^4 cells per well into 24-well plates (triplicate wells per condition) in the relevant complete medium and adhered for a full 24-hour period. A ‘time-0’ plate was included to record the starting cell number to calculate relative cell numbers. Cells were washed once with phosphate-buffered saline (PBS) before receiving experimental medium containing or lacking the specified amino acids, metabolites, or drugs. At the stated time-points the medium was removed, cells were fixed in a 4% formalin-PBS solution. Cells were then washed and stored in PBS before staining with 4′,6-diamidino-2-phenylindole (DAPI)-Triton™ X100-PBS solution for 1 hour, followed by storage in PBS at 4° C. until further analysis. DAPI-stained cell nuclei were detected via microscopy.
Homocysteine, cystathionine, glutathione, putrescine, spermine, spermidine, GPX4 inhibitor ML210, SMOX inhibitor MDL 72527, PAOX inhibitor diminazene aceturate, ferrostatin-1 and erastin were used. AMD1 inhibitor sardomozide/SAM486A, GPX4 inhibitor RSL3, and CSE inhibitor beta-cyano-L-alanine were used. […]

[2] = system: MDA-MB-231, PANC-1, and MIAPaCa-2 cells; experiment: CellROX assay on live cells, starvation-sensitive cell lines; conditions: cysteine starved, MTAP deleted cells, 18 h
Experimental: Cells were seeded as described above. Live cells were stained with Hoechst 33342 nuclear stain for 20 min. The medium was removed, and cells were stained in 100 μl medium containing CellTracker™ Green CMFDA Dye and Hoechst stain for 40 min. The cells were then washed with PBS, and 300 μl of the relevant experimental medium was added for 1 hour. Then, CellROX® Deep Red was spiked into the medium, and the cells were incubated for 40 min. The medium was removed, the cells were washed with PBS, and new relevant experimental medium including CellROX was added. The cells were imaged using an Operetta automated microscope platform set to 37° C. in 5% CO2 every hour for 16-24 hours. I

[3] = system: MTAP-deleted HCT116 cells; experiment: Cell counting during cysteine starvation, MTAP-deleted HCT116; conditions: −Cys, low levels of methionine
Text: [NT] Successfully transfected cells were selected with puromycin and grown as clonal colonies. Clones were selected based initially on MTA efflux measured by liquid chromatography mass spectrometry (LC-MS). Clones with greatest MTA efflux were selected, and methylthioadenosine phosphorylase knockout (MTAP-KO) was then confirmed by western blot. MTAP-KO HCT116 cells were transfected with pCMV-Hygro-MTAP and pCMV-Hygro-negative control vector, selected using hygromycin B, and grown as clonal colonies. Clones were selected based initially on MTA efflux measured by LC-MS. Clones with low MTA efflux were selected, then MTAP re-expression was confirmed by western blot. […] DAPI-stained cell nuclei were detected via microscopy. […] For experiments using spermine oxidase (SMOX) and polyamine oxidase (PAOX) inhibitors or MTOB, cells were pre-treated with stated concentrations for 16 hours in complete medium. After pre-treatment, cells were washed in PBS, and treatment was continued in complete or cysteine-free medium for stated times. After treatment was finished, cells were fixed and stained as described above. For experiments using MTA, polyamines, GPX4 and CSE inhibitors, treatment started at the same time as cysteine starvation. For experiments involving hypoxic conditions, cells were seeded in normoxic conditions and allowed to adhere for 24 hours before control and cysteine starvation medium was added and cells were immediately transferred either to a humidified cell culture incubator set to 37° C. in 20% O2 (normoxia), or a hypoxia chamber set to 37° C. in 1% O2 (hypoxia) for the stated times. Cells were fixed immediately and stained as described above.

[4] = system: MTAP-expressing HCT116 cells; experiment: Cell counting during cysteine starvation, MTAP-expressing HCT116; conditions: −Cys with or without methionine
Text: [NT] Successfully transfected cells were selected with puromycin and grown as clonal colonies. Clones were selected based initially on MTA efflux measured by liquid chromatography mass spectrometry (LC-MS). Clones with greatest MTA efflux were selected, and methylthioadenosine phosphorylase knockout (MTAP-KO) was then confirmed by western blot. MTAP-KO HCT116 cells were transfected with pCMV-Hygro-MTAP and pCMV-Hygro-negative control vector, selected using hygromycin B, and grown as clonal colonies. Clones were selected based initially on MTA efflux measured by LC-MS. Clones with low MTA efflux were selected, then MTAP re-expression was confirmed by western blot. […] DAPI-stained cell nuclei were detected via microscopy. For experiments using spermine oxidase (SMOX) and polyamine oxidase (PAOX) inhibitors or MTOB, cells were pre-treated with stated concentrations for 16 hours in complete medium. After pre-treatment, cells were washed in PBS, and treatment was continued in complete or cysteine-free medium for stated times. After treatment was finished, cells were fixed and stained as described above. For experiments using MTA, polyamines, GPX4 and CSE inhibitors, treatment started at the same time as cysteine starvation. For experiments involving hypoxic conditions, cells were seeded in normoxic conditions and allowed to adhere for 24 hours before control and cysteine starvation medium was added and cells were immediately transferred either to a humidified cell culture incubator set to 37° C. in 20% O2 (normoxia), or a hypoxia chamber set to 37° C. in 1% O2 (hypoxia) for the stated times. Cells were fixed immediately and stained as described above.

Compound: CSCC[C@H](N)C(=O)O [methionine]
- restoration of proliferation during cysteine starvation [1]: no rescue
- ROS levels (CellROX) in response to methionine concentration [2]: increased in a dose-dependent manner
- effect of methionine on survival during cysteine starvation [3]: inhibited the ability of MTAP deleted cells to survive
- effect of presence of methionine during cysteine starvation [4]: advantageous
